Tests used:
Assay in all cases: relative viability (nuclei count vs DMSO), 5 days (fraction); higher = more cells survive
Sunitinib + Foretinib = compound: CCN(CC)CCNC(=O)c1c(C)[nH]c(/C=C2\C(=O)Nc3ccc(F)cc32)c1C [Sunitinib] + COc1cc2c(Oc3ccc(NC(=O)C4(C(=O)Nc5ccc(F)cc5)CC4)cc3F)ccnc2cc1OCCCN1CCOCC1 [Foretinib] (partner 0.25 µM)
Summary of the method: (§1)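 Relative viability divides the nuclei count in treated wells by that in vehicle wells. Lung cancer cell lines were seeded in 1536-well plates, dosed by pin tool the next day, and fixed and stained after 5 days in one step with final 0.05% Triton X-100, 1% formaldehyde and 1 ug/ml Hoechst. Dosing was a single drug or a fixed anchor-drug dose plus five library-drug doses (not always all listed) in √10 steps, and values are medians of duplicate plates imaged at 4×.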

Sunitinib + Vorinostat = compound: CCN(CC)CCNC(=O)c1c(C)[nH]c(/C=C2\C(=O)Nc3ccc(F)cc32)c1C [Sunitinib] + O=C(CCCCCCC(=O)Nc1ccccc1)NO [Vorinostat] (partner 1 µM)
Summary of the method: as §1

Sunitinib + AZD7762 = compound: CCN(CC)CCNC(=O)c1c(C)[nH]c(/C=C2\C(=O)Nc3ccc(F)cc32)c1C [Sunitinib] + NC(=O)Nc1cc(-c2cccc(F)c2)sc1C(=O)N[C@H]1CCCNC1 [AZD7762] (partner 0.2 µM)
Summary of the method: as §1

Sunitinib + Pictilisib = compound: CCN(CC)CCNC(=O)c1c(C)[nH]c(/C=C2\C(=O)Nc3ccc(F)cc32)c1C [Sunitinib] + CS(=O)(=O)N1CCN(Cc2cc3nc(-c4cccc5[nH]ncc45)nc(N4CCOCC4)c3s2)CC1 [Pictilisib] (partner 1 µM)
Summary of the method: as §1

Cell Line	relative viability (Sunitinib + Foretinib; first compound 0.02 µM)	relative viability (Sunitinib + Foretinib; first compound 0.06325 µM)	relative viability (Sunitinib + Foretinib; first compound 0.2 µM)	relative viability (Sunitinib + Foretinib; first compound 0.6325 µM)	relative viability (Sunitinib + Foretinib; first compound 2 µM)	relative viability (Sunitinib + Vorinostat; first compound 0.02 µM)	relative viability (Sunitinib + Vorinostat; first compound 0.06325 µM)	relative viability (Sunitinib + Vorinostat; first compound 0.2 µM)	relative viability (Sunitinib + Vorinostat; first compound 0.6325 µM)	relative viability (Sunitinib + Vorinostat; first compound 2 µM)	relative viability (Sunitinib + AZD7762; first compound 0.02 µM)	relative viability (Sunitinib + AZD7762; first compound 0.06325 µM)	relative viability (Sunitinib + AZD7762; first compound 0.2 µM)	relative viability (Sunitinib + AZD7762; first compound 0.6325 µM)	relative viability (Sunitinib + AZD7762; first compound 2 µM)	relative viability (Sunitinib + Pictilisib; first compound 0.02 µM)	relative viability (Sunitinib + Pictilisib; first compound 0.06325 µM)	relative viability (Sunitinib + Pictilisib; first compound 0.2 µM)	relative viability (Sunitinib + Pictilisib; first compound 0.6325 µM)	relative viability (Sunitinib + Pictilisib; first compound 2 µM)
NCI-H2405	1.07	1.06	1.09	1.05	1.11	1.09	0.991	1.12	1.08	1.04	0.703	0.759	0.8	0.878	0.648	0.382	0.49	0.502	0.524	0.474
NCI-H23	0.875	1.25	1.03	1.1	0.749	0.625	0.841	0.686	0.665	0.674	0.287	0.281	0.36	0.226	0.241	0.498	0.594	0.483	0.468	0.504
LXF-289	0.979	1.02	1.02	1.03	1.1	0.688	0.857	0.824	0.779	0.752	1.08	1.16	1.14	1.19	1.08	0.743	0.874	0.868	0.786	0.881
NCI-H1437	1.24	1.25	1.28	1.22	1.32	0.804	0.839	0.876	0.887	–	1.09	1.14	1.15	1.13	1.07	0.376	0.559	0.427	0.456	0.434
NCI-H727	0.926	0.837	1.12	0.979	0.788	1.12	1.22	1.18	1.18	1.25	0.652	0.575	0.554	0.612	0.618	0.278	0.417	0.542	0.325	0.344
RERF-LC-KJ	0.873	0.907	0.903	0.87	0.919	0.701	0.733	0.674	0.66	0.707	0.959	1.05	1.04	0.932	1	0.642	0.507	0.51	0.468	0.528
SW 1573	0.879	0.928	0.889	1.09	0.998	0.643	0.915	0.783	1.07	0.899	–	–	–	–	–	0.511	0.438	0.591	0.555	0.458
UMC-11	0.962	1.03	1.11	1.06	0.956	0.329	0.373	0.401	0.349	0.388	–	–	–	–	–	0.793	0.883	0.968	0.814	0.866
Calu-6	0.836	0.951	0.913	0.963	–	–	–	–	–	–	–	–	–	–	–	0.901	0.887	1.13	1.09	0.93
NCI-H1299	1.07	1.15	1.14	1.08	1.12	–	–	–	–	–	–	–	–	–	–	0.748	0.654	0.862	–	0.558
NCI-H661	1.06	1.07	1.01	–	1.04	0.751	0.78	0.826	0.817	0.839	–	–	–	–	–	0.385	0.362	0.368	0.319	0.441
HCC-44	–	–	–	–	–	1.15	1.09	1.15	1.09	1.14	1.05	1.08	1.01	1.01	1.05	0.524	0.653	0.968	0.786	0.598
NCI-H2023	0.739	0.887	0.981	0.659	0.78	0.575	0.585	0.906	0.812	0.488	–	–	–	–	–	0.205	0.265	0.26	0.269	0.23
NCI-H1703	0.333	0.25	0.284	0.306	0.254	–	–	–	–	–	0.136	0.146	0.127	0.138	0.122	0.215	0.208	0.245	0.224	0.204
NCI-H1792	–	–	–	–	–	–	–	–	–	–	0.503	0.847	1.02	0.835	0.512	0.242	0.291	0.243	0.242	0.265
COR-L23	0.972	0.945	1.14	0.961	0.969	0.457	0.515	0.484	0.464	0.503	–	–	–	–	–	0.788	1.04	0.97	0.881	0.812
SK-MES-1	0.932	0.932	1.03	1.09	0.894	1.07	1.09	1.24	1.29	1.08	–	–	–	–	–	0.352	0.382	0.344	0.316	0.359
NCI-H1650	1.23	1.14	1.09	0.977	1.08	0.558	0.606	0.752	0.659	0.582	–	–	–	–	–	0.535	0.559	0.545	0.681	0.536
NCI-H2009	1.19	1.25	1.31	1.27	1.3	0.725	0.765	0.828	0.746	0.723	–	–	–	–	–	0.748	0.791	0.842	0.876	0.758
NCI-H520	0.593	0.843	0.798	1	0.605	0.694	0.793	0.569	0.674	0.578	–	–	–	–	–	0.244	0.32	0.348	0.278	0.273
IA-LM	1.12	1.32	1.25	1.14	1.19	0.975	0.864	0.987	0.952	1.03	–	–	–	–	–	0.419	0.395	0.358	0.331	0.402
